Tests used:
Assay in all cases: KAM-matrix competition in K562 lysate;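 on 0.001 uM KAM: median log10 fold change of treatment over DMSO control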;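 on 0.01 uM KAM: median log10 fold change of treatment over DMSO control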;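 on 0.1 uM KAM: median log10 fold change of treatment over DMSO control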;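 on 1 uM KAM: median log10 fold change of treatment over DMSO control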;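 on 10 uM KAM: median log10 fold change of treatment over DMSO control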
Type in all cases: binding
TAOK2 = target: T1, TAOK2 (Homo sapiens, UniProt Q9UL54);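 on 0.001 uM KAM: median log10 fold change of treatment over DMSO control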;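 on 0.01 uM KAM: median log10 fold change of treatment over DMSO control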;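 on 0.1 uM KAM: median log10 fold change of treatment over DMSO control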;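 on 1 uM KAM: median log10 fold change of treatment over DMSO control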;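 on 10 uM KAM: median log10 fold change of treatment over DMSO control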
T1 construct: endogenous in cells; host or cells: K562
T1 sequence (Q9UL54 1-1235): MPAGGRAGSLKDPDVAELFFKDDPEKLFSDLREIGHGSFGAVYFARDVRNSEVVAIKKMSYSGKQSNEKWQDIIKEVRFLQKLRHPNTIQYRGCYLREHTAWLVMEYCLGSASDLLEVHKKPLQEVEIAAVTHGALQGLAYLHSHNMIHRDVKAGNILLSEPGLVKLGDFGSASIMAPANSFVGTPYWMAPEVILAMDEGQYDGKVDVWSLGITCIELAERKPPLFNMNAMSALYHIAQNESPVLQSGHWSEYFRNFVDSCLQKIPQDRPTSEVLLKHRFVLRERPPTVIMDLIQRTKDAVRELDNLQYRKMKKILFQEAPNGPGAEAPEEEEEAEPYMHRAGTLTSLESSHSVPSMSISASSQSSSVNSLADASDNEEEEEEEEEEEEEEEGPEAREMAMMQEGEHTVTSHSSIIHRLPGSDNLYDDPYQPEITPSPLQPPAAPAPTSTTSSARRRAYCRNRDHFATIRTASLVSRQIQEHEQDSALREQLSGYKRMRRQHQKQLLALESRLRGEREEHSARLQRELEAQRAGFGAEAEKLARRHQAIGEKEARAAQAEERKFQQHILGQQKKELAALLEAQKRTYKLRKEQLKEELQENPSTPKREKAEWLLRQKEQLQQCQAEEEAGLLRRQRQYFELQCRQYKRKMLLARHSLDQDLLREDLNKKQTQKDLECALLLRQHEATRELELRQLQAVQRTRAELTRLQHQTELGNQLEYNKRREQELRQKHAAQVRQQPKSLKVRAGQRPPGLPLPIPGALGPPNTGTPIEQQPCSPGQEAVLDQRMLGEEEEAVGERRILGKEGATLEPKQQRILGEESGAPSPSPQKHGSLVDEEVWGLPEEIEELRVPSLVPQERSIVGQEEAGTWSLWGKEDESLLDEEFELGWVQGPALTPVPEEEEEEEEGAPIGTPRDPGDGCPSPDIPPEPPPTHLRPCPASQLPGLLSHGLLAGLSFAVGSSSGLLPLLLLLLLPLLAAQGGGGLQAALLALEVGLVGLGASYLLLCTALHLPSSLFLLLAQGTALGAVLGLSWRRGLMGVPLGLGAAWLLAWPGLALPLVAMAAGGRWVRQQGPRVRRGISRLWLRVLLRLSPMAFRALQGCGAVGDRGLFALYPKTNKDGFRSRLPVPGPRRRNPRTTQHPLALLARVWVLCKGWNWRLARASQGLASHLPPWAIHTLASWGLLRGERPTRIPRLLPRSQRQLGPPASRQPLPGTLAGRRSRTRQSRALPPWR
Protocol: (§1) Supplement 12953_2017_125_MOESM1_ESM.zip/MS_Supp Info.xlsx, sheet "KAM" | column: 10 uM KAM; 1 uM KAM; 0.1 uM KAM; 0.01 uM KAM; 0.001 uM KAM; RB50

ULK2 = target: T2, ULK2 (Homo sapiens, UniProt Q8IYT8);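 on 0.001 uM KAM: median log10 fold change of treatment over DMSO control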;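 on 0.01 uM KAM: median log10 fold change of treatment over DMSO control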;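 on 0.1 uM KAM: median log10 fold change of treatment over DMSO control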;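 on 1 uM KAM: median log10 fold change of treatment over DMSO control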;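 on 10 uM KAM: median log10 fold change of treatment over DMSO control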
T2 construct: endogenous in cells; host or cells: K562
T2 sequence (Q8IYT8 1-1036): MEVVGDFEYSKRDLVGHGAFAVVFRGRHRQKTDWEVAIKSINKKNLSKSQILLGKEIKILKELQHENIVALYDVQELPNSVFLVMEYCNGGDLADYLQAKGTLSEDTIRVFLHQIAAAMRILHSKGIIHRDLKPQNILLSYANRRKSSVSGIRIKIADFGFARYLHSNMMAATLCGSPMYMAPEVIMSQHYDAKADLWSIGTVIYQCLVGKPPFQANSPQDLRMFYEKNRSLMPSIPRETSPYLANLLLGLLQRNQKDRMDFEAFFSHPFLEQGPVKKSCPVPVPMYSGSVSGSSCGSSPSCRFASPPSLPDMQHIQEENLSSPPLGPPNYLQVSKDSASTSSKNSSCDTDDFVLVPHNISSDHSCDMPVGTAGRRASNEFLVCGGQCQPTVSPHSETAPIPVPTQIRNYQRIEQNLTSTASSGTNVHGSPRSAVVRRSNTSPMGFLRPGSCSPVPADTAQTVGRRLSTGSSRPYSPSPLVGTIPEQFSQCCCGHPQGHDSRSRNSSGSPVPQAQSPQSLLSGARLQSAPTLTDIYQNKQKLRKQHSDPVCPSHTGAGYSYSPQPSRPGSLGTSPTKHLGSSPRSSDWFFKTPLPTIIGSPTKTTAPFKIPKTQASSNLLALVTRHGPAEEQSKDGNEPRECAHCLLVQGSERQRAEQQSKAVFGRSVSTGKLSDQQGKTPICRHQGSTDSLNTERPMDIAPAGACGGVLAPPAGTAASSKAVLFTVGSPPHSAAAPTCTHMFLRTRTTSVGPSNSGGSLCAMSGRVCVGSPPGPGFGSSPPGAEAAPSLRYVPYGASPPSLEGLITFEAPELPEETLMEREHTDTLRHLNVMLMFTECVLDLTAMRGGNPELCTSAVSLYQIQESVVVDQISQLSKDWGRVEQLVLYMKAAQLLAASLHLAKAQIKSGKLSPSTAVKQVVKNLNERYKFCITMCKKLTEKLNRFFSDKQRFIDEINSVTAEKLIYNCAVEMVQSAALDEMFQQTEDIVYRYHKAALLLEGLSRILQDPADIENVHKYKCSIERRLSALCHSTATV
Protocol: as §1

PRKAA1 = target: T3, PRKAA1 (Homo sapiens, UniProt Q13131)
T3 construct: endogenous in cells; host or cells: K562
T3 sequence (Q13131 whole entry): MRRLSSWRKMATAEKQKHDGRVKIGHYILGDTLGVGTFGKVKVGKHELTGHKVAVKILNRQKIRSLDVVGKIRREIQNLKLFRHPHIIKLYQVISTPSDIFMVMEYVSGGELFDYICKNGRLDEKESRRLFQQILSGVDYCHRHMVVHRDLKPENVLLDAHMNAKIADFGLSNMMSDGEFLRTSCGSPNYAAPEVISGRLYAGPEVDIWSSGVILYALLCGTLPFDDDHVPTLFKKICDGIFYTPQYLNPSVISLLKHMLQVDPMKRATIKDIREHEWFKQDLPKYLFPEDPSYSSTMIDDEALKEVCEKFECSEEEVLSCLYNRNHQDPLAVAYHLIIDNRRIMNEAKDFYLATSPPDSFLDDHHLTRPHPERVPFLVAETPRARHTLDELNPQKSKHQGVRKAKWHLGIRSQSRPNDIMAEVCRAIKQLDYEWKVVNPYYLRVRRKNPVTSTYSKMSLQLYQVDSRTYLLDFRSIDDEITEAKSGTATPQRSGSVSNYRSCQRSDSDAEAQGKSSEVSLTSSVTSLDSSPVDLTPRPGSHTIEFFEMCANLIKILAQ
T3 sequence (Q9Y478 2-270 partner limits assumed): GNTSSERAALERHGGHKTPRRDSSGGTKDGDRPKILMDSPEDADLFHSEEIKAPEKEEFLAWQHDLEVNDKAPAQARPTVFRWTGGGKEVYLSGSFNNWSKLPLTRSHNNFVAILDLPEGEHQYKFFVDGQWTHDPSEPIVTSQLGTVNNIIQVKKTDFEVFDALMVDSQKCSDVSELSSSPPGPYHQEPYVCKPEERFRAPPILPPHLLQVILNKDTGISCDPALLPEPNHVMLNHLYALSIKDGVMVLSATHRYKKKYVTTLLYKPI
T3 sequence (P54619 whole entry partner): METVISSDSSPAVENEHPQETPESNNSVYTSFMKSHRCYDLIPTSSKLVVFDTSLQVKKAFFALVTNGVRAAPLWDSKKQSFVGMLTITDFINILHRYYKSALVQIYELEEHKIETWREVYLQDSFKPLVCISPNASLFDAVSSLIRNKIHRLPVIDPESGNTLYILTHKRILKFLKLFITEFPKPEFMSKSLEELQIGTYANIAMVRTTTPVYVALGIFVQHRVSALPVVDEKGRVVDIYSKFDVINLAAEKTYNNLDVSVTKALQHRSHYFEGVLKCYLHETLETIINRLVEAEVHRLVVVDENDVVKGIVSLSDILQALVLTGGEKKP
Protocol: as §1

SLK = target: T4, SLK (Homo sapiens, UniProt Q9H2G2)
T4 construct: endogenous in cells; host or cells: K562
T4 sequence (Q9H2G2 whole entry): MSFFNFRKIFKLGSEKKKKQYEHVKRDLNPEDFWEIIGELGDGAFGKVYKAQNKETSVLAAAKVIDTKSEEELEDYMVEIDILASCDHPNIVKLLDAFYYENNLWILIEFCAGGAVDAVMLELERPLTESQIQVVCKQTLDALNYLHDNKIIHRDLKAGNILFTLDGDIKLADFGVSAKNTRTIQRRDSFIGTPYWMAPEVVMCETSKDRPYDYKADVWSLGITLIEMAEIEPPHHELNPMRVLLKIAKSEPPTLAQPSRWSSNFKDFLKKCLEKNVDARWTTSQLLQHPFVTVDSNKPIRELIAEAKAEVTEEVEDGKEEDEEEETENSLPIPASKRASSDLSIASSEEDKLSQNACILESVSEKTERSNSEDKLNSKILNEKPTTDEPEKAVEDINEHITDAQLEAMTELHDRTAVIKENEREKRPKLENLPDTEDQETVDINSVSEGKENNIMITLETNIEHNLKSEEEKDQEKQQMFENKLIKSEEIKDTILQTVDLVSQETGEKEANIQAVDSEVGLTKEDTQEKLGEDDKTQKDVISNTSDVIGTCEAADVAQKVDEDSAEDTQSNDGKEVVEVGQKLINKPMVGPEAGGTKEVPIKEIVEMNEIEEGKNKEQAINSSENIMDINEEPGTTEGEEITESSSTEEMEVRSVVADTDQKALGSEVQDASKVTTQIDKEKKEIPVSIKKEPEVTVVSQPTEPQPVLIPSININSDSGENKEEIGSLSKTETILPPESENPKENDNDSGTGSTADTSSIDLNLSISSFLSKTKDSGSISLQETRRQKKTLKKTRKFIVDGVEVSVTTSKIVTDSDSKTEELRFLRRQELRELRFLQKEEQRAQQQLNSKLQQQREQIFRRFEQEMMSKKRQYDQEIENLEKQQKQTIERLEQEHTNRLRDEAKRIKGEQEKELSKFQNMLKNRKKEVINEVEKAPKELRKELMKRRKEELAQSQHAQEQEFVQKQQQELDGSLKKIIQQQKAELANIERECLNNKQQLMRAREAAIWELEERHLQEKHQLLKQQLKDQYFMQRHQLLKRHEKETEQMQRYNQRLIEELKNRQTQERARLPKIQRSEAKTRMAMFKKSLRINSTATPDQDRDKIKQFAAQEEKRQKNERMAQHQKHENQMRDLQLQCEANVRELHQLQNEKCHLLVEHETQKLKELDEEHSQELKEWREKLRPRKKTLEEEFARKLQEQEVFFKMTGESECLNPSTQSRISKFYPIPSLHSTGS
Protocol: as §1

SYK = target: T5, SYK (Homo sapiens, UniProt P43405)
T5 construct: K562 cell pellets were thawed on ice and resuspended in cold Lysis buffer; endogenous in cells; host or cells: K562
Protocol: as §1

[1] = KAM 0.001-10 uM, read-out: RB50 (the source's name)
[2] = read-out: RB50 (the source's name)

N#CCc1ccc(Nc2nc(NCCCN)cc(Nc3cc(C4CC4)[nH]n3)n2)cc1 [KAM]
IC50 (TAOK2; [1]): 6630 nM | 0.001 uM KAM (TAOK2; relative to 0 uM KAM = 0): -0.0603 | 0.01 uM KAM (TAOK2; relative to 0 uM KAM = 0): -0.04102 | 0.1 uM KAM (TAOK2; relative to 0 uM KAM = 0): -0.1359 | 1 uM KAM (TAOK2; relative to 0 uM KAM = 0): -0.1664 | 10 uM KAM (TAOK2; relative to 0 uM KAM = 0): -0.2974 | IC50 (ULK2; [1]): > 10000 nM | 0.001 uM KAM (ULK2; relative to 0 uM KAM = 0): -0.004094 | 0.01 uM KAM (ULK2; relative to 0 uM KAM = 0): -0.0009308 | 0.1 uM KAM (ULK2; relative to 0 uM KAM = 0): 0.03838 | 1 uM KAM (ULK2; relative to 0 uM KAM = 0): 0.1564 | 10 uM KAM (ULK2; relative to 0 uM KAM = 0): 0.04645 | median Log10 fold change (PRKAA1; 0.001 uM KAM): 0.006818 | median Log10 fold change (PRKAA1; 0.01 uM KAM): -0.02218 | median Log10 fold change (PRKAA1; 0.1 uM KAM): -0.1974 | median Log10 fold change (PRKAA1; 1 uM KAM): -0.5073 | median Log10 fold change (PRKAA1; 10 uM KAM): -0.6565 | IC50 (PRKAA1; [2]): 284 nM | median Log10 fold change (SLK; 0.001 uM KAM): 0.008335 | median Log10 fold change (SLK; 0.01 uM KAM): -0.005793 | median Log10 fold change (SLK; 0.1 uM KAM): -0.3118 | median Log10 fold change (SLK; 1 uM KAM): -0.5551 | median Log10 fold change (SLK; 10 uM KAM): -0.6917 | IC50 (SLK; [2]): 139 nM | median Log10 fold change (SYK; 0.001 uM KAM): -0.04062 | median Log10 fold change (SYK; 0.01 uM KAM): -0.03667 | median Log10 fold change (SYK; 0.1 uM KAM): -0.2061 | median Log10 fold change (SYK; 1 uM KAM): -0.3555 | median Log10 fold change (SYK; 10 uM KAM): -0.3656 | IC50 (SYK; [2]): 714 nM

— PMC5513037, “Examining the influence of specificity ligands and ATP-competitive ligands on the overall effectiveness of bivalent kinase inhibitors” (Proteome Science, 2017)
